Values of other authors, collected in patent US7402577B2, “Androstane 17-beta-carboxamides as androgen receptor modulators” (priority 2001, dated 2008).

Tests used:
[1] = tested on: spinal BMD; settings: after 7 years of treatment
[2] = tested on: fractures; settings: postmenopausal osteoporotic women, median of 22 months of treatment

| Compound | increase in spinal BMD [1] | reduction in nonvertebral fractures [2] | reduction in spine fractures [2] |
| --- | --- | --- | --- |
| NCCCC(O)(P(=O)([O-])O)P(=O)(O)O.O.O.O.[Na+] [alendronate, (4-amino-1-hydroxybutylidene)-bis-phosphonate monosodium trihydrate] | ≤ 11% |  |  |
| hPTH(1-34): human parathyroid hormone 1-34 fragment (SVSEIQLMHNLGKHLNSMERVEWLRKKLQDVHNF; Parathyroid hormone; UniProt P01270 32-65, looked up, fragment) |  | 54% | ≥ 65% |
